Where two headings read alike, the source gives them in different places.
Legend:
rats [1] = format: in vivo, rat; conditions: rats of the MAP/HR figures, 2×ED50, tail vein
[2] = tested on: secretion of cortisol, H295R cell line; test: cells; format: cell-based; conditions: for Cortisol as an indicator to determine the presence of inhibition: H295R cell line, 0.1-10000 nM, HPLC-MS/MS; for EC50: Homo sapiens, NCI-H295R, read-out: EC50 (Cortisol)
Description: (§1) The Effects of the Compounds on Adrenocortical Function In Vitro Test
(§2) Then secretion of the cortisol and corticosterone in the supernatant, was measured using HPLC-MS/MS method to determine whether the compounds of the present invention had adrenotoxic potential.

[3] = tested on: secretion of corticosterone, H295R cell line; test: cells; format: cell-based; conditions: for Corticosterone as an indicator to determine the presence of inhibition: H295R cell line, 0.1-10000 nM, HPLC-MS/MS; for EC50: Homo sapiens, NCI-H295R, read-out: EC50 (Corticosterone)
Description: as §1, §2

rats [4] = tested on: rats
Description: Adult male Sprague-Dawley rats (250-300 g) were selected for the experiment. […] The anesthesia effects of the compounds were assessed in rats using a LORR assay and a period >30 s was considered as an indicator of general anesthesia. Then the up and down method was used to determine 50% effective dose (ED50). The drugs were administered through the tail vein of rats in a volume of 0.6 mL and at a rate of 0.1 mL/s.

rats [5] = test: Loss of righting reflexes (LORR) assay in rats, ED50 by up and down method; format: in vivo, rat; conditions: Rattus norvegicus, tail vein, class symbols
In short: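 Adult male Sprague-Dawley rats (250-300 g) dosed i.v. via tail vein at 0.1 mL/s. Anesthesia scored as loss of righting reflex lasting >30 s; ED50 derived by up-and-down method.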

rats [6] = test: Pharmacological characteristics at equivalent doses (2×ED50) in rats; conditions: 2×ED50, tail vein; for Adverse reactions: Red urine (incidence): DMSO solution (DMSO alone 10/10); for Adverse reactions: Tremor (incidence): animals affected/animals; for Onset time: time of LORR
In short: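 Adult male Sprague-Dawley rats (250-300 g, n=8) received each drug at twice its ED50 via tail vein (0.6 mL at 0.1 mL/s). Onset of anesthesia taken as time to LORR.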

rats [7] = conditions: continuous tail vein infusion at 2×MIR, LORR maintained 1 hour
Description: Pharmacological Effects of the Compounds on Continuous Infusion in Rats
Adult male Sprague-Dawley rats with body weight ranging from 250 to 300 gm were selected for continuous infusion test. […] Time to recovery of righting reflex from stopping infusion, and time to fully awake from stopping infusion were recorded.

rats [8] = format: in vivo, rat; conditions: rats of the MAP/HR figures, 2×ED50, tail vein; same value in min
In short: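 Rats implanted with telemetry (left ventricular and abdominal aortic catheters, ECG leads) at least one week before recording; compounds given via lateral tail-vein catheter. MAP and HR sampled every 15 s for 30 min before and after dosing to judge hemodynamic stability.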

Compound	recovery time of the test animals' righting reflex (rats [1]) [s]	Cortisol as an indicator to determine the presence of inhibition ([2]; Table D3)	EC50 [2] [µM]	Corticosterone as an indicator to determine the presence of inhibition ([3]; Table D3)	EC50 [3] [µM]	Approximate therapeutic index (rats [4])	Minimal lethal dose (rats [4]) [mg/kg]	ED50 (rats [5]) [mg/kg]	Righting reflex duration (rats [6]) [min]	Adverse reactions: Red urine (incidence) (rats [6])	Onset time (rats [6]) [min]	Onset time (rats [7]; Table D4) [min]	Recovery time after stopping infusion (rats [7]; Table D4) [min]	Types and incidence of adverse reactions (rats [7]; Table D4)	recovery time of the test animals' righting reflex (rats [8]) [min]	Adverse reactions: Hindlimb rigidity (incidence) (rats [6])	other results
C#CC(C)(C)OC(=O)c1cncn1[C@H](C)c1ccccc1 [Compound D15]	225	0	> 10	0	> 10	>10	>4	0.1 to 0.5	2.25 ± 0.79	(7/8)	0.21 ± 0.10	2 to 3	10 to 11	Tremor (3/6)	3.75		Adverse reactions: Tremor (incidence) (rats [6]): Tremor (2/8), Red urine
CC#CCOC(=O)c1cncn1[C@H](C)c1ccccc1 [Compound D18]	317	0	> 10	0	> 10	>12	>3	0.1 to 0.5	1.88 ± 0.95	urine (8/8)	0.22 ± 0.11	3 to 4	11 to 13	Convulsions (1/6), Tremor (4/6)	5.28		Adverse reactions: Convulsions (incidence) (rats [6]): Convulsions (1/8), Red
C=C=CC1(OC(=O)c2cncn2[C@H](C)c2ccccc2)COC1 [Compound D21]	360	0	> 1	0	> 1	>16	>1	0.01 to 0.1	1.93 ± 0.95	Red urine (8/8)	0.15 ± 0.05	2 to 3	8 to 9	Tremor (4/6), Myoclonus (1/6)	6.0	Hindlimb rigidity (2/8),	
CCC#CC(C)OC(=O)c1cncn1[C@H](C)c1ccccc1 (stereo partly shown) [Compound D36]	143	0	> 1	0	> 1	>15	>4	0.1 to 0.5	2.63 ± 1.78	Red urine (8/8)	0.31 ± 0.14	3 to 4	12 to 17		2.38	Hindlimb rigidity (2/8),	Adverse reactions: Tongue stretching (incidence) (rats [6]): Tongue stretching (4/8),
C=CC#CC(C)(C)OC(=O)c1cncn1[C@H](C)c1ccccc1 [Compound D37]	165	0	> 1	0	> 1	>13	>10	0.5 to 1	3.09 ± 2.03	Red urine (8/8)	0.24 ± 0.11	2 to 3	12 to 18	Tremor (4/6)	2.75		
CC#CC1(OC(=O)c2cncn2[C@H](C)c2ccccc2)CCCCC1 [Compound D40]	441	0	> 1	0	> 1	>16	>4	0.1 to 0.5	1.78 ± 1.94	Red urine (8/8)	0.73 ± 0.43	2 to 3	10 to 15	Tremor (5/6)	7.35	Hindlimb rigidity (1/8),	
C/C=C/C1(OC(=O)c2cncn2[C@H](C)c2ccccc2)COC1 [Compound D42]	323	0	> 1	0	> 1	>12	>9	0.5 to 1	2.50 ± 1.18	Red urine (8/8)	0.13 ± 0.02	3 to 4	12 to 16	Tremor (6/6)	5.38		
C=C=CC1(OC(=O)c2cncn2[C@H](C)c2ccccc2)CCCCC1 [Compound D43]	117	0	> 10	0	> 10	>13	>1	0.01 to 0.1	1.45 ± 0.78	Red urine (8/8)	0.22 ± 0.07	2 to 3	11 to 14	Tremor (4/6)	1.95	Hindlimb rigidity (2/8),	
COCC1(COC(=O)c2c(F)ncn2[C@H](C)c2ccccc2)CCC1 [Compound E2]	129		> 10		> 10	>25	>5	0.1 to 0.5	2.20 ± 1.11	(8/8)	0.23 ± 0.07				2.15		Cortisol as an indicator to determine the presence of inhibition ([2]; Table E3): 0; Corticosterone as an indicator to determine the presence of inhibition ([3]; Table E3): 0; Onset time (rats [7]; Table E4): 3 to 4 min; Recovery time after stopping infusion (rats [7]; Table E4): 11 to 13 min; Types and incidence of adverse reactions (rats [7]; Table E4): Tremor (2/6)
CC(=O)C(C)(C)OC(=O)c1c(F)ncn1[C@H](C)c1ccccc1 [Compound E6]	174		> 10		> 10	>24	>10	0.5 to 1	2.73 ± 1.08	urine (8/8)	0.13 ± 0.04				2.90		Cortisol as an indicator to determine the presence of inhibition ([2]; Table E3): 0; Corticosterone as an indicator to determine the presence of inhibition ([3]; Table E3): 0; Adverse reactions: Tremor (incidence) (rats [6]): (1/8), Red; Onset time (rats [7]; Table E4): 2 to 3 min; Recovery time after stopping infusion (rats [7]; Table E4): 9 to 11 min; Types and incidence of adverse reactions (rats [7]; Table E4): Tremor (4/6)

Reference: patent US11434205B2, “Substituted imidazole carboxylate derivatives and the use thereof” (priority 2018, dated 2022)
